Like-named read-outs stand apart in the source and are kept apart here.
Tests used:
[1] = target: T1, RNase H activity of Y188L mutant enzyme of HIV (Human immunodeficiency virus type 1 group M subtype B, UniProt P04585, Y775L); test: biochemical
[2] = target: T1, RNase H activity of Y188L mutant enzyme of HIV; conditions: with preincubation
[3] = target: T2, RNase H activity of wild type reverse transcriptase of HIV (Human immunodeficiency virus type 1 group M subtype B, UniProt P04585); test: biochemical
[4] = target: polymerase activity of Y188L mutant enzyme of HIV (Human immunodeficiency virus type 1 group M subtype B, UniProt P04585, Y775L); test: biochemical
[5] = target: T2, RNase H activity of wild type reverse transcriptase of HIV; conditions: wild type RT, with preincubation
[6] = target: polymerase activity of wild type reverse transcriptase of HIV (Human immunodeficiency virus type 1 group M subtype B, UniProt P04585); test: biochemical; conditions: Polymerase IC50, wild type RT
virus proliferation = conditions: reported in literature; cited from earlier work
[7] = with preincubation, with metal cofactors
[8] = with preincubation, without metal cofactors

Structure (SMILES)	IC50 [1]	RNaseH IC50 ([2]; with metal cofactors)	RNaseH IC50 ([2]; without metal cofactors)	IC50 [3]	IC50 [4, 7]	IC50 [4, 8]	IC50 ([4]; without preincubation)	RNaseH IC50 ([5]; with metal cofactors)	RNaseH IC50 ([5]; without metal cofactors)	IC50 [6, 7]	IC50 [6, 8]	IC50 ([6]; without preincubation)	inhibition of virus proliferation in cell-based assay (virus proliferation)
Cc1ccc(C(=O)Nc2ccc(S(=O)(=O)O)c3cc(S(=O)(=O)O)cc(S(=O)(=O)O)c23)cc1NC(=O)c1cccc(NC(=O)Nc2cccc(C(=O)Nc3cc(C(=O)Nc4ccc(S(=O)(=O)O)c5cc(S(=O)(=O)O)cc(S(=O)(=O)O)c45)ccc3C)c2)c1 [suramin, Suramin sodium]	> 77.1 µM	≈POL	≈POL	> 77.1 µM	2.47 µM	10 µM	> 77.1 µM	≈POL	≈POL	2.47 µM	16.2 µM	> 77.1 µM	
O=C(O)C(=O)CC(=O)c1ccc(NC(=O)c2ccccc2)s1 [Compound 1, 4-[5-(benzoylamino)thien-2-yl]-2,4-dioxobutanoic acid]													can not inhibit virus proliferation

— patent US7572579B2, “Screening method for a ribonuclease H inhibitor of a reverse transcriptase” (priority 2004, dated 2009)
